Assay results: US20250051282A1, “COMPOUNDS FOR TREATING POLYQ-RELATED NEURODEGENERATIVE DISORDERS” (HANGZHOU JIJING PHARMACEUTICAL TECHNOLOGY LIMITED, priority 2021, published 2025)
Structures can show the parent of a compound that is named as a salt.

Tested on: ATXN1(60Q)
Assay: Daoy-ATXN1(60Q)-mATXN1 MSD assay (CTG normalized)
Type: cell-based
Conditions: Daoy-Flag-ATXN1(60Q) stable cells, compound added Day 2, lysis Day 3, final DMSO 0.3%, read-out: Daoy-ATXN1(60Q)-mATXN1 MSD (CTG normalized) DC50
Description: Protocol for MSD Assay: Daoy-ATXN1(600)-mATXN1 MSD (CTG normalized)
The Flag-ATXN1(60Q) gene is synthesized by Genescript and cloned into the pLVX-IRES-Puro vector (Takarabio, catalog No. 632183) using EcoRI/BamHI restriction enzyme sites. Lentivirus is made by transfecting HEK293T cells with pLVX-IRES-Puro-Flag-ATXN1(60Q) plasmids and packaging plasmids psPAX2 and pMD2.G at 4:3:1 ratio (8:6:[…], respectively) in 10 cm plates, and are harvested at 48 hours post transfection. Daoy cells (ATCC catalog No. HTB-186) seeded in T25 flasks are infected with the lentivirus in the presence of 8 µg/mL polybrene (Sigma, TR-1003-G) for 24 hours. 48 hours post infection, the cells are selected using 0.5 […] (Sigma, P8833) for more than 5 days until all cells in the uninfected group die. The expression of Flag-ATXN1(60Q) is verified by anti-Flag immunoblot using anti-Flag antibody (Sigma, F1804-200UG, M2).
As explained above, Daoy-Flag-ATXN1(60Q) cells are prepared as a stable cell line by infecting Daoy cells with lentivirus. The media for the cells is EMEM (ATTC, 30-2008) with 10% fetal bovin serum (FBS).
On Day 1, the Daoy-Flag-ATXN1(60Q) cells are seeded in a 96 well plate at a concentration of 1.2×10^4/well. On Day 2, the cells are treated with test compounds at test concentrations (compounds are serially diluted with DMSO to obtain test concentrations, such that final DMSO concentration is 0.3%). On Day 3, the cells are washed with 100 μL of phosphate-buffered saline (PBS) per well, and then 30 μL of radioimmuno-precipitation assay (RIPA) buffer (with protease and phosphatase inhibitor cocktail) is added to each well.
The well plate is then cooled on ice for 30 minutes in order to complete lysis, and MSD samples are prepared using 10 μL of Daoy-Flag-ATXN1-60Q lysate and 90 μL of RIPA buffer with gentle mixing. Each MSD sample has a total volume of 100 μL, and is used immediately or stored at −80° C.
A standard Meso Scale Discovery (MSD) plate is coated with anti-Flag (Sigma, F1804-200UG, M2) in PBS at 1:500 dilution ratio and 40 µL/well, and is incubated at 4° C. overnight with shaking at 600 rpm. Then, the MSD plate is washed 3 times with 150 µL/well of 1X TBST (tris-buffered saline (TBS) with Tween 20) buffer, and the MSD plate is blocked with 150 μL of blocking buffer [3% Blocker A in 1X TBST, (3 g Blocker A per 100 mL 1X TBST)] and shaken for 1 hour at 600 rpm at room temperature. Then, the MSD plate is washed three times with 150 μL/well of 1X TBST. Next, the diluted lysate samples (from Sample Preparation above) are added to the MSD plate at 25 μL/well, and the MSD plate is shaken at 600 rpm for 1 hour at room temperature. Then the MSD plate is washed 3 times with 150 μL/well of 1X TBST.
Detection antibody anti-Ataxin 1 (G-bio, ITA1916) (1:500), which is prepared in antibody detection buffer (1% Blocker A in 1X TBST), is then added to the MSD plate at 25 µL/well, and the MSD plate is shaken at 600 rpm for 1 hour at room temperature. The MSD plate is then washed three times with 150 μL/well of 1X TBST. Next, a secondary detection antibody, Goat anti-rabit (GAR) with SULFO-TAG (1:500), which is prepared in antibody detection buffer (1% Blocker A in 1X TBST), is added at 25 μL/well and the MSD plate is shaken at 600 rpm for 1 hour at room temperature. Then the MSD plate is washed 3 times with 150 μL/well of 1X TBST, and 2X MSD reading buffer is added at 150 μL/well (diluted from 4x MSD reading buffer with water). Finally, the signal from each well is measured on the MSD Meso QuickPle SQ120 Plate Reader. DC50 data is calculated using collaborate drug discovery (CDD) software (https://www.collaborativedrug.com/about).

`CN/C(=C1\C(=O)Nc2ccc(Br)cc21)c1cccc(O)c1` [Example 1, (Z)-5-bromo-3-((3-hydroxyphenyl) (methylamino)methylene) indolin-2-one] and `O=C1Nc2ccc(Br)cc2/C1=C(/NC1CC1)c1cccc(O)c1` [Example 7, (Z)-5-bromo-3-((cyclopropylamino) (3-hydroxyphenyl)methylene)indolin-2-one] cannot be ordered by DC50: < 10 µM for the first, < 10 µM for the second.

`O=C1Nc2ccc(Br)cc2/C1=C(/NCCCF)c1cccc(O)c1` [Example 6, (Z)-5-bromo-3-(((3-fluoropropyl)amino) (3-hydroxyphenyl)methylene)indolin-2-one] and `NCCN/C(=C1\C(=O)Nc2ccc(Br)cc21)c1cccc(O)c1` [Example 27, (Z)-3-(((2-aminoethyl)amino)(3-hydroxyphenyl)methylene)-5-bromo indolin-2-one] cannot be ordered by DC50: < 10 µM for the first, < 10 µM for the second.

`O=C1Nc2ccc(Br)cc2/C1=C(/NC1CCC1)c1cccc(O)c1` [Example 8, (Z)-5-bromo-3-((cyclobutylamino) (3-hydroxyphenyl)methylene)indolin-2-one] and `O=C1Nc2ccc(Br)cc2/C1=C(/NC1CCNCC1)c1cccc(O)c1` [Example 25, (Z)-5-bromo-3-((3-hydroxyphenyl) (piperidin-4-ylamino)methylene) indolin-2-one] cannot be ordered by DC50: < 10 µM for the first, < 10 µM for the second.

`CN1CC(N/C(=C2\C(=O)Nc3ccc(Br)cc32)c2cccc(O)c2)C1` [Example 9, (Z)-5-bromo-3-((3-hydroxyphenyl)((1-methylazetidin-3-yl)amino)methylene) indolin-2-one] and `O=C1Nc2ccc(Br)cc2/C1=C(/NC1CNC1)c1cccc(O)c1` [Example 26, (Z)-3-((azetidin-3-ylamino)(3-hydroxyphenyl)methylene) 5-bromindolin-2-one] cannot be ordered by DC50: < 10 µM for the first, < 10 µM for the second.

Compared with `O=C1Nc2ccc(Br)cc2/C1=C(\c1cccc(O)c1)N1CCCCC1` [Example 12, (Z)-5-bromo-3-((3-hydroxyphenyl) (piperidin-1-yl)methylene) indolin-2-one], `CN1CCC(N/C(=C2\C(=O)Nc3ccc(Br)cc32)c2cccc(O)c2)CC1` [Example 15, (Z)-5-bromo-3-((3-hydroxyphenyl)((1-methylpiperidin-4-yl)amino)methylene) indolin-2-one] is lower in DC50: > 30 µM for the first, < 10 µM for the second.

`O=C1Nc2ccc(Br)cc2/C1=C(/Nc1c[nH]cn1)c1cccc(O)c1` [Example 17, (Z)-3-(((1H-imidazol-4-yl)amino)(3-hydroxyphenyl)methylene)-5-bromoindolin-2-one] and `O=C1Nc2ccc(Br)cc2/C1=C(/Nc1ccnnc1)c1cccc(O)c1` [Example 38, (Z)-5-bromo-3-((3-hydroxyphenyl)(pyridazin-4-ylamino)methylene) indolin-2-one] cannot be ordered by DC50: < 10 µM for the first, < 10 µM for the second.

`O=C1Nc2ccc(OC(F)(F)F)cc2/C1=C(/NCCO)c1cccc(O)c1` [Example 18, (Z)-3-(((2-hydroxyethyl)amino)(3-hydroxyphenyl)methylene)-5-(trifluoromethoxy) indolin-2-one] and `Nc1cccc(/C(NC2CNC2)=C2/C(=O)Nc3ccc(OC(F)(F)F)cc32)c1` [Example 34, (Z)-3-((3-aminophenyl)(azetidin-3-ylamino)methylene)-5-(trifluoromethoxy) indolin-2-one] cannot be ordered by DC50: < 10 µM for the first, < 10 µM for the second.

Compared with `O=C1Nc2ccc(Br)cc2/C1=C(/NCCCF)c1ccccc1` [Example 19, (Z)-5-bromo-3-(((3-fluoropropyl)amino) (phenyl)methylene) indolin-2-one], `NCCN/C(=C1\C(=O)Nc2ccc(Br)cc21)c1ccccc1` [Example 28, (Z)-3-(((2-aminoethyl)amino) (phenyl)methylene)-5-bromoindolin-2-one] is higher in DC50: < 10 µM for the first, 10 to 30 µM for the second.

`O=C1Nc2ccc(Br)cc2/C1=C(/NCCCF)c1cccc(C(F)F)c1` [Example 20, (Z)-5-bromo-3-((3-(difluoromethyl)phenyl)((3-fluoropropyl)amino)methylene) indolin-2-one] and `NCCN/C(=C1\C(=O)Nc2ccc(Br)cc21)c1cccc(C(F)F)c1` [Example 30, (Z)-3-(((2-aminoethyl)amino)(3-(difluoromethyl)phenyl)methylene)-5-bromoindolin-2-one] cannot be ordered by DC50: < 10 µM for the first, < 10 µM for the second.

First: Cn1cc(N/C(=C2\C(=O)Nc3ccc(Br)cc32)c2cccc(F)c2)cn1 [Example 21, (Z)-5-bromo-3-((3-fluorophenyl)((1-methyl-1H-pyrazol-4-yl)amino)methylene) indolin-2-one]
Second: Cn1cc(N/C(=C2\C(=O)Nc3ccc(Br)cc32)c2ccccc2)cn1 [Example 22, (Z)-5-bromo-3-(((1-methyl-1H-pyrazol-4-yl)amino)(phenyl)methylene)indolin-2-one]
The DC50 of the first is higher: > 30 µM for the first, 10 to 30 µM for the second.

Compared with `O=C1Nc2ccc(Br)cc2/C1=C(/NC1CCNC1)c1cccc(O)c1` (stereo not shown) [Example 24, (Z)-5-bromo-3-((3-hydroxyphenyl) (pyrrolidin-3-ylamino)methylene) indolin-2-one formate], `Nc1cccc(/C(NC2CNC2)=C2/C(=O)Nc3ccc(Br)cc32)c1` [Example 33, (Z)-3-((3-aminophenyl)(azetidin-3-ylamino)methylene)-5-bromoindolin-2-one] is lower in DC50: > 30 µM for the first, < 10 µM for the second.

`NCCN/C(=C1\C(=O)Nc2ccc(Br)cc21)c1cc(N)ccc1F` [Example 32, (Z)-3-((5-amino-2-fluorophenyl)((2-aminoethyl)amino)methylene)-5-bromo indolin-2-one] and `O=C1Nc2ccc(Br)cc2/C1=C(/NC1CNC1)c1cccc(F)c1` [Example 37, (Z)-3-((azetidin-3-ylamino)(3-fluorophenyl)methylene)-5-bromoindolin-2-one] cannot be ordered by DC50: < 10 µM for the first, < 10 µM for the second.

`O=C1Nc2ccc(Br)cc2/C1=C(/NC1CNC1)c1ccccc1` [Example 35, (Z)-3-((azetidin-3-ylamino)(phenyl)methylene)-5-bromo indolin-2-one] and `O=C1Nc2ccc(Br)cc2/C1=C(/Nc1ccnnc1)c1ccccc1` [Example 39, (Z)-5-bromo-3-(phenyl(pyridazin-4-ylamino)methylene) indolin-2-one] cannot be ordered by DC50: < 10 µM for the first, < 10 µM for the second.

Compared with `NCCOCCOCCOCCN/C(=C1\C(=O)Nc2ccc(Br)cc21)c1cccc(O)c1` [Example 36, (Z)-3-(13-amino-1-(3-hydroxyphenyl)-5,8,11-trioxa-2-azatridecylidene)-5-bromoindolin-2-one], `O=C1Nc2ccc(Br)cc2/C1=C(/Nc1ccnnc1)c1cccc(F)c1` [Example 40, (Z)-5-bromo-3-((3-fluorophenyl)(pyridazin-4-ylamino)methylene) indolin-2-one] is lower in DC50: 10 to 30 µM for the first, < 10 µM for the second.

Going from `O=C1Nc2ccc(Br)cc2/C1=C(/Nc1ccnnc1)c1cccc(C(F)F)c1` [Example 41, (Z)-5-bromo-3-((3-(difluoromethyl)phenyl)(pyridazin-4-ylamino)methylene) indolin-2-one] to `O=C1Nc2ccc(Br)cc2/C1=C(/Nc1ccnnc1)c1ccc(F)c(F)c1` [Example 42, (Z)-5-bromo-3-((3,4-difluorophenyl) (pyrazin-4-ylamino)methylene) indolin-2-one], the DC50 rises from < 10 µM to > 30 µM.

Same assay, conditions: read-out: Daoy-ATXN1(60Q)-mATXN1 MSD (CTG normalized) DC50, Daoy-Flag-ATXN1(60Q) stable cells, compound added Day 2, lysis Day 3, final DMSO 0.3%

In the case of `CCCN/C(=C1\C(=O)Nc2ccc(Br)cc21)c1cccc(O)c1` [Example 5, (Z)-5-bromo-3-((3-hydroxyphenyl) (propylamino)methylene) indolin-2-one], the DC50 is reported as < 10 µM.
